“And” between values parts separate entries of the source, which are not always exact repeats. Equal entries are not always repeated. Inconclusive results and toxic doses are left out. Rule for the calls: active = survival T/C of 150% or more; inactive = T/C below 125% in these data.
System: P388 leukemia ip, CD2F1 mice, survival T/C
Assay: NCI In Vivo Anticancer Drug Screen. Data for tumor model P388 Leukemia (intraperitoneal) in CD2F1 (CDF1) mice
Settings: endpoint: median survival time, higher = longer survival
Summary of the method: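 Mice carrying the transplanted tumor received test compound or vehicle. Survival was recorded in each group, and the value is the treated-group measurement divided by that of the vehicle-treated control group.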

[1] = dose: 60.0 mg/kg/injection, schedule: Q01DX005 (ip), vehicle: saline with Tween-80
[2] = dose: 120.0 mg/kg/injection, schedule: Q01DX005 (ip), vehicle: saline with Tween-80
[3] = dose: 240.0 mg/kg/injection, schedule: Q01DX005 (ip), vehicle: saline with Tween-80
[4] = dose: 50.0 mg/kg/injection, schedule: Q01DX005 (ip), vehicle: Klucel (hydroxypropylcellulose) (HPC)
[5] = dose: 100.0 mg/kg/injection, schedule: Q01DX005 (ip), vehicle: Klucel (hydroxypropylcellulose) (HPC)
[6] = dose: 12.5 mg/kg/injection, schedule: Q01DX005 (ip), vehicle: saline with Tween-80
[7] = dose: 25.0 mg/kg/injection, schedule: Q01DX005 (ip), vehicle: saline with Tween-80
[8] = dose: 50.0 mg/kg/injection, schedule: Q01DX009 (ip), vehicle: Klucel (hydroxypropylcellulose) (HPC)
[9] = dose: 100.0 mg/kg/injection, schedule: Q01DX009 (ip), vehicle: Klucel (hydroxypropylcellulose) (HPC)
[10] = dose: 50.0 mg/kg/injection, schedule: Q01DX009 (ip), vehicle: saline
[11] = dose: 100.0 mg/kg/injection, schedule: Q01DX009 (ip), vehicle: saline
[12] = dose: 200.0 mg/kg/injection, schedule: Q01DX009 (ip), vehicle: saline

Measured: T/C

CC(=S)SC1(C)SC(C)(SC(C)=S)S1 (stereo not drawn)
inactive: dose: 25.0 mg/kg/injection, schedule: Q01DX009 (ip), vehicle: saline with Tween-80 91 % of control | dose: 50.0 mg/kg/injection, schedule: Q01DX009 (ip), vehicle: saline with Tween-80 94 % of control | dose: 100.0 mg/kg/injection, schedule: Q01DX009 (ip), vehicle: saline with Tween-80 94 % of control

O=C1CC2OCC=C3CN4CCC56c7ccccc7N1C5C2C3CC46 (stereo not drawn) (tested in a mixture with another compound)
inactive: dose: 0.38 mg/kg/injection, schedule: Q01DX009 (ip), vehicle: saline + alcohol 100 % of control | dose: 0.75 mg/kg/injection, schedule: Q01DX009 (ip), vehicle: saline + alcohol 109 % of control | dose: 1.5 mg/kg/injection, schedule: Q01DX009 (ip), vehicle: saline + alcohol 95 % of control

O=C(Nc1ccc(Cl)cc1)Nc1nnc2nc(C(C(=O)c3cccc([N+](=O)[O-])c3Cl)c3nc4nnc(NC(=O)Nc5ccc(Cl)cc5)n4[nH]c3=O)c(=O)[nH]n12
inactive: [1] 110 % of control | [2] 101 % of control | [3] 95 % of control

COc1ccc(C=NCCC[Si]23OCCN(CCO2)CCO3)c(OC)c1OC
inactive: [4] 98 % of control | [5] 94 % of control | dose: 200.0 mg/kg/injection, schedule: Q01DX005 (ip), vehicle: Klucel (hydroxypropylcellulose) (HPC) 103 % of control

COC(=O)C(CCCCNC(=O)OCc1ccccc1)NC(=O)C(CCCCNC(=O)OCc1ccccc1)NC(=O)OC(C)(C)C (stereo not drawn)
inactive: dose: 6.25 mg/kg/injection, schedule: Q01DX005 (ip), vehicle: saline with Tween-80 100 % of control | [6] 97 % of control | [7] 97 % of control

CCCCCCOC(=O)CC1CC(C(C)=O)C1(C)C (stereo not drawn)
inactive: [8] 94 % of control | [9] 106 % of control | dose: 200.0 mg/kg/injection, schedule: Q01DX009 (ip), vehicle: Klucel (hydroxypropylcellulose) (HPC) 109 % of control | dose: 400.0 mg/kg/injection, schedule: Q01DX009 (ip), vehicle: Klucel (hydroxypropylcellulose) (HPC) 117 % of control

COc1cc(C(c2cc3c(cc2O)OCO3)N2CCOCC2)cc(OC)c1OC (stereo not drawn)
inactive: [1] 107 % of control | [2] 111 % of control

O=NN(CCCCl)C(=O)NC1CCCCC1
inactive: dose: 12.5 mg/kg/injection, schedule: Q01DX009 (ip), vehicle: saline 86 % of control | dose: 25.0 mg/kg/injection, schedule: Q01DX009 (ip), vehicle: saline 98 % of control | [10] 104 % of control | [11] 107 % of control

COC(=O)CC1(C(=O)OC)c2ccc3c(C(=O)C(F)(F)F)cccc3c2N2CCCC21 (stereo not drawn)
inactive: dose: 100.0 mg/kg/injection, schedule: Q04DX002 (ip), vehicle: saline 101 % of control | dose: 200.0 mg/kg/injection, schedule: Q04DX002 (ip), vehicle: saline 102 % of control | dose: 400.0 mg/kg/injection, schedule: Q04DX002 (ip), vehicle: saline 102 % of control

CC(C)=CCc1cc(C2COc3cc4c(c(O)c3C2=O)C=CC(C)(C)O4)c(O)cc1O (stereo not drawn)
inactive: dose: 8.0 mg/kg/injection, schedule: Q01DX009 (ip), vehicle: Klucel (hydroxypropylcellulose) (HPC) 98 % of control | dose: 16.0 mg/kg/injection, schedule: Q01DX009 (ip), vehicle: Klucel (hydroxypropylcellulose) (HPC) 101 % of control | dose: 32.0 mg/kg/injection, schedule: Q01DX009 (ip), vehicle: Klucel (hydroxypropylcellulose) (HPC) 100 % of control | dose: 64.0 mg/kg/injection, schedule: Q01DX009 (ip), vehicle: Klucel (hydroxypropylcellulose) (HPC) 98 % of control

CC(=O)Nc1nnc(-c2coc3ccccc3c2=O)s1
inactive: [1] 91 % of control | [2] 91 % of control

CC12CCCN1CC=C2CO (stereo not drawn)
inactive: dose: 25.0 mg/kg/injection, schedule: Q01DX001 (ip), vehicle: saline with Tween-80 100 % of control | dose: 50.0 mg/kg/injection, schedule: Q01DX001 (ip), vehicle: saline with Tween-80 96 % of control | dose: 100.0 mg/kg/injection, schedule: Q01DX001 (ip), vehicle: saline with Tween-80 100 % of control

CC(C)NC(C#N)C(C)C (stereo not drawn)
inactive: dose: 3.12 mg/kg/injection, schedule: Q01DX005 (ip), vehicle: Klucel (hydroxypropylcellulose) (HPC) 99 % of control | dose: 6.25 mg/kg/injection, schedule: Q01DX005 (ip), vehicle: Klucel (hydroxypropylcellulose) (HPC) 108 % of control | dose: 12.5 mg/kg/injection, schedule: Q01DX005 (ip), vehicle: Klucel (hydroxypropylcellulose) (HPC) 102 % of control

COc1cc(C2c3cc4c(cc3C3OC(=O)C2C3CO)OCO4)cc(OC)c1OC (stereo not drawn)
inactive: dose: 0.12 mg/kg/injection, schedule: Q01DX009 (ip), vehicle: Klucel (hydroxypropylcellulose) (HPC) 117 % of control | dose: 0.25 mg/kg/injection, schedule: Q01DX009 (ip), vehicle: Klucel (hydroxypropylcellulose) (HPC) 115 % of control | dose: 0.5 mg/kg/injection, schedule: Q01DX009 (ip), vehicle: Klucel (hydroxypropylcellulose) (HPC) 120 % of control | dose: 3.12 mg/kg/injection, schedule: Q01DX009 (ip), vehicle: Klucel (hydroxypropylcellulose) (HPC) 118 % of control | dose: 6.25 mg/kg/injection, schedule: Q01DX009 (ip), vehicle: Klucel (hydroxypropylcellulose) (HPC) 118 % of control

Cc1c(Cl)cccc1NC(=O)Nc1nccs1
inactive: dose: 25.0 mg/kg/injection, schedule: Q01DX009 (ip), vehicle: Klucel (hydroxypropylcellulose) (HPC) 90 % of control | [8] 93 % of control | [9] 100 % of control

O=C1OC[C@@H]2[C@H]1[C@H]1O[C@@H]2c2cc3ccccc3cc21
inactive: [1] 104 % of control | [2] 101 % of control | [3] 101 % of control

O=C1OC(=O)C2C3OC(C(Br)C3Br)C12 (stereo not drawn)
inactive: [4] 102 % of control | [5] 98 % of control

Cc1ccc(O)c(C2CC(=O)NC(N)=N2)c1 (stereo not drawn)
inactive: [10] 110 % of control | [11] 101 % of control | [12] 104 % of control

COC(=O)C(COS(=O)(=O)c1ccc(C)cc1)NC(=O)OCc1ccc(OC)cc1 (stereo not drawn)
inactive: dose: 12.5 mg/kg/injection, schedule: Q01DX009 (ip), vehicle: water 98 % of control | dose: 25.0 mg/kg/injection, schedule: Q01DX009 (ip), vehicle: water 95 % of control | dose: 50.0 mg/kg/injection, schedule: Q01DX009 (ip), vehicle: water 89 % of control | dose: 100.0 mg/kg/injection, schedule: Q01DX009 (ip), vehicle: water 91 % of control | dose: 200.0 mg/kg/injection, schedule: Q01DX009 (ip), vehicle: water 91 % of control

COc1ccc(C2=C(Cl)C(=O)N(c3ccc(Cl)cc3)C(=O)C2(Cl)Cl)cc1
inactive: dose: 100.0 mg/kg/injection, schedule: Q04DX002 (ip), vehicle: Klucel (hydroxypropylcellulose) (HPC) 101 % of control | dose: 200.0 mg/kg/injection, schedule: Q04DX002 (ip), vehicle: Klucel (hydroxypropylcellulose) (HPC) 94 % of control | dose: 400.0 mg/kg/injection, schedule: Q04DX002 (ip), vehicle: Klucel (hydroxypropylcellulose) (HPC) 97 % of control

COc1ccc(-c2coc3c4c(c(CC=C(C)C)c(OC)c3c2=O)OC(C)(C)C=C4)cc1OC
inactive: [6] 102 % of control | [7] 100 % of control | dose: 50.0 mg/kg/injection, schedule: Q01DX005 (ip), vehicle: saline with Tween-80 98 % of control and 91 % of control

N/C(=N\O)c1ccc2oc(/C=C/c3cc4cc(/C(N)=N\O)ccc4o3)cc2c1
inactive: [10] 100 % of control | [11] 97 % of control | [12] 91 % of control

CN1CC[C@]23c4c5ccc(O)c4OC2C(O)C=C[C@H]3[C@H]1C5 (stereo partly drawn)
inactive: dose: 100.0 mg/kg/injection, schedule: Q01DX001 (ip), vehicle: Klucel (hydroxypropylcellulose) (HPC) 103 % of control | dose: 200.0 mg/kg/injection, schedule: Q01DX001 (ip), vehicle: Klucel (hydroxypropylcellulose) (HPC) 100 % of control | dose: 400.0 mg/kg/injection, schedule: Q01DX001 (ip), vehicle: Klucel (hydroxypropylcellulose) (HPC) 110 % of control

Source: PubChem BioAssay AID330 (DTP/NCI, 2004)
